# Reference: patent US20230398228A1, “ERIBULIN-BASED ANTIBODY-DRUG CONJUGATES AND METHODS OF USE” (EISAI R&D MANAGEMENT CO., LTD., priority 2016, published 2023)
# “Also recorded” adds a separate entry of the source.
# What was measured:
# SJSA-1 cells = assay: Crystal Violet cytotoxicity assay (Examples 1 and 2), SJSA-1
# Procedure: Typically, test reagents were serial diluted 1:4 in 2 mL deep-well dilution plates, starting at 1 μM (10 dilutions total). 100 μL of diluted samples were added to the cell plates (starting concentration of test samples at 500 nM). […] Medium was discarded, plates were washed once with 200 μL DPBS, stained with 50 μL of 0.2% Crystal Violet solution at room temperature for 15 min, and then washed extensively with tap water. Plates were air-dried, and Crystal Violet was dissolved with 200 μL of 1% SDS solution. Plates were read at 570 nm. Data was analyzed using GraphPad Prism 6. Assays were performed using a seeding density of 1,000 cells per well and compound exposure was for a total of 5 days. When shorter-term exposure was desired, medium containing cytotoxic agents was removed after 4 hours and replaced with fresh growth medium prior to 5-day incubation. For OVCAR3, CaOV3, and NCI-H2110, cells were seeded at 3,000 cells/well and incubated for 5 days with ADC.
# In vitro potency of prepared ADCs was assessed using a Crystal Violet assay as detailed in section 1.4.1.
# SJSA-1 cells are a human osteosarcoma tumor cell line that are negative for folate receptor alpha.
# Typically, test reagents were serially-diluted 1:4 in 2 mL deep-well dilution plates, starting at 1 μM (10 dilutions total). 100 μL of diluted samples were added to the cell plates (starting concentration of test samples at 100 nM). […] Medium was discarded, plates were washed once with 200 μL DPBS, stained with 50 μL of 0.2% Crystal Violet solution at room temperature for 15 min, and then washed extensively with tap water. Plates were air-dried, and Crystal Violet was dissolved with 200 μL of 1% SDS solution. Plates were read at 570 nm. Data was analyzed using GraphPad Prism 6.
# [1] = test system: human BM-MSCs co-cultured with MKN-74 cells; assay: 3D co-culture system (rStomach, zPredicta), MSC differentiation by flow cytometry; assay type: cell-based; conditions: 7 days treatment, MORAb-202 10 nM, MORAb-003 10 nM, eribulin […] and 0.2 nM (Table 41)
# Procedure: All mesenchymal stem cell (MSC)-containing 3D co-culture experiments were conducted in zPredicta, using organ-specific 3D extracellular matrix systems such as rStomach™. Bone marrow mesenchymal stem cells (BM-MSCs) in rStomach™ were co-cultured with the Nuc Red Light MKN-74 gastric cancer cell line in quadruplicate in 48-well format for 12 days. […] Prior to culture, BM-MSCs were evaluated for target antigen expression and for markers of MSC differentiation (Table 40) by flow cytometry.
# Controls included untreated and vehicle-treated (PBS and DMSO) cultures. MSC differentiation was monitored by light microscopy. Once visible differentiation was observed, samples were harvested for staining and flow cytometry analysis.
# Bone marrow mesenchymal stem cells (BM-MSCs) in rStomach™ (zPredicta) were co-cultured with the MKN-74 gastric cancer cell line for 12 days. […] Once visible MSC differentiation was observed by light microscopy, samples were harvested for staining and flow cytometry analysis.
# NCI-N87 cells = assay: Crystal Violet cytotoxicity assay (Example 4), NCI-N87; assay type: cell-based, human
# Procedure: (§1) Test reagents were serial diluted 1:3 in 2 mL deep-well dilution plates, starting at 200 nM (10 dilutions total). […] Medium was then discarded. […] Plates were read at 570 nm. Data was analyzed using GraphPad Prism 6.
# ZR-75 cells = assay: Crystal Violet cytotoxicity assay (Example 4), ZR-75; assay type: cell-based, human
# Procedure: as §1
# NUGC3 cells = assay: Crystal Violet cytotoxicity assay (Example 4), NUGC3; assay type: cell-based, human; conditions: listed as MORAb-003-VCP-eribulin
# Procedure: as §1
# [2] = test system: Endo-12961 endometrial cancer patient-derived xenograft; assay: Endometrial cancer PDx model Endo-12961
# Procedure: Tumor fragments were implanted subcutaneously into the left flank of 40 NMRI nu/nu female mice, and tumor volume was monitored. Mice with a tumor volume of 100-160 mm^3 were randomized into one of four groups (Groups A-D, Table 39). […] Each group consisted of 8 animals. The day of randomization was designated as Day 0 of the experiment.
# Tumor growth was evaluated by the measurement of two perpendicular diameters twice weekly, and tumor volume (TV), relative tumor volume (RTV) and treated/control (T/C) values were calculated. Body weight was also evaluated twice weekly as a parameter for toxicity, with the calculation of the body weight per group and body weight changes (BWC) relative to the start of treatment. Animals were sacrificed when the individual tumor volume exceeded 1 cm^3, or at the end of the study.
substance,measurement,setting,value
MORAb-003-maleimido-PEG2-Val-Cit-pAB-eribulin [MORAb-202],"killing of FR-negative SJSA-1 cells (off-target), in words",SJSA-1 cells; Example 1 screening,little killing
same,IC50,"SJSA-1 cells; read-out: Cytotoxicity (IC50) SJSA-1, SJSA-1 cells, mean of replicate experiments, where performed",> 100 nM
same,EC50,"SJSA-1 cells; read-out: cytotoxicity (EC50) on SJSA-1 cells, Example 2",> 100 nM
same,"Percentage of live cells, Pericytes",[1]; PBS 14.6%,11.4%
same,"Percentage of live cells, Adipocytes",[1]; PBS […],22.6%
same,"Percentage of live cells, MSCs",[1]; PBS […],43.7%
same,"cytotoxicity on NCI-N87 cells, in words",NCI-N87 cells,weak but specific killing
same,"cytotoxicity on ZR-75 cells, in words",ZR-75 cells,little killing
same,"cytotoxicity on NUGC3 cells, in words",NUGC3 cells,little killing; also recorded: low cytotoxicity
same,"tumor re-growth during the study, in words",[2]; MORAb-202 5 mg/kg or eribulin 3.2 mg/kg,no significant tumor re-growth
same,"anti-tumor activity, in words","[2]; MORAb-202 5 mg/kg or eribulin 3.2 mg/kg, single i.v. dose",significant anti-tumor activity
same,"effect on body weight, in words",[2]; first week post-treatment,no body weight loss
